The assay in a line: Inhibition of SDS-activated 20S proteasome activity in rabbit muscle. The format is tissue-based, Oryctolagus cuniculus, Muscle tissue.

Drawing on ChEMBL document CHEMBL1137708, “3D-QSAR studies of boron-containing dipeptides as proteasome inhibitors with CoMFA and CoMSIA methods” (Eur J Med Chem, 2009), this text covers pKi for 58 compounds.

The compound `CC(C)C[C@H](NC(=O)[C@H](Cc1ccccc1)NC(=O)c1cnccn1)B(O)O` [BORTEZOMIB] showed a pKi of 9.22.
`CC(C)C[C@H](NC(=O)[C@H](Cc1ccc(F)cc1)NC(=O)c1cnccn1)B(O)O` registered a negative-log Ki (pKi) of 9.02.
`CC(=O)N[C@@H](Cc1cccnc1)C(=O)N[C@@H](CC(C)C)B(O)O` gave a pKi of 8.27.
The figure for `CC(C)C[C@H](NC(=O)[C@H](Cc1cccc2ccccc12)NC(=O)c1cnc2ccccc2n1)B(O)O` is 9.85; for `CC(C)C[C@H](NC(=O)[C@H](Cc1cccc2ccccc12)NC(=O)c1ccccc1)B(O)O` it is 10.06; for `CC(C)C[C@H](NC(=O)[C@H](Cc1ccccc1)NS(=O)(=O)c1cccc2cccnc12)B(O)O` it is 8.36.
With `CC(C)C[C@H](NC(=O)[C@@H](N)Cc1cccc2ccccc12)B(O)O` the figure was 8.12; with `CC(C)C[C@H](NC(=O)[C@@H](N)Cc1cccnc1)B(O)O`, 6.82.
`CC(C)C[C@H](NC(=O)[C@H](CC(C)C)NC(=O)OCc1ccccc1)B(O)O` showed a negative logarithm of the Ki (pKi) of 8.52.
In turn, `CC(C)CC(NC(=O)[C@H](Cc1ccccc1)NC(=O)CCc1ccccc1)B(O)O` (single isomer, unassigned) gave a negative-log Ki (pKi) of 9.82.
With `CB(C)[C@H](CC(C)C)NC(=O)[C@H](CCc1ccccc1)NC(=O)c1ccc2ccccc2n1`, the pKi amounted to 8.55.
The figure for `CC(=O)N[C@@H](Cc1cccc2ccccc12)C(=O)N[C@@H](CC(C)C)B(O)O` is 9.77; for `CC(C)C[C@H](NC(=O)[C@H](Cc1ccc(O)cc1)NC(=O)N1CCOCC1)B(O)O` it is 9.29.
As for `CC(C)C[C@H](NC(=O)[C@H](Cc1cccc2ccccc12)NC(=O)OCc1ccccc1)B(O)O`, the negative logarithm of the Ki (pKi) came to 10.08.
In the case of `CC(C)C[C@H](NC(=O)[C@H](Cc1ccccn1)NC(=O)C1CCCCC1)B(O)O`, the pKi amounted to 8.96.
For `CC(C)C[C@H](NC(=O)[C@H](Cc1cccc2ccccc12)NC(=O)C1CCCCC1)B(O)O`, the negative logarithm of the Ki (pKi) is given as 10.52.
With `CB(C)[C@H](CC(C)C)NC(=O)[C@H](Cc1cccc2ccccc12)NC(=O)N1CCOCC1`, the pKi turned out to be 6.19.
The figure for `CC(C)C[C@H](NC(=O)[C@H](Cc1ccc(OCc2ccccn2)cc1)NC(=O)N1CCOCC1)B(O)O` is 9.7.
The compound `CC(C)C[C@H](NC(=O)[C@H](Cc1ccccn1)NC(=O)c1ccc2ccccc2n1)B(O)O` displayed a negative logarithm of the Ki (pKi) of 8.85.
In the case of `CC(C)C[C@H](NC(=O)[C@H](Cc1ccccc1)NC(=O)c1ccoc1)B(O)O`, the pKi is 9.77.
On to `CC(C)CC(NC(=O)[C@H](Cc1cccc2ccccc12)NC(=O)N1CCOCC1)B(O)O` (single isomer, unassigned), for which the negative logarithm of the Ki (pKi) came to 9.14.
In turn, `CC(C)C[C@H](NC(=O)[C@H](Cc1cccc2ccccc12)NC(=O)c1ccc2ccccc2n1)B(O)O` registered a pKi of 10.12.
The figure for `CC(C)C[C@H](NC(=O)[C@H](Cc1c[nH]cn1)NC(=O)OCc1ccccc1)B(O)O` is 7.6.
Take `CC(C)C[C@H](NC(=O)[C@H](Cc1ccccn1)NC(=O)c1cnccn1)B(O)O`: the pKi is 8.15.
Compound `Cc1ccc(S(=O)(=O)N[C@@H](Cc2cccc3ccccc23)C(=O)N[C@@H](CC(C)C)B(O)O)cc1` displayed a pKi of 9.77.
The figure for `CC(=O)N[C@@H](Cc1c[nH]c2ccccc12)C(=O)N[C@@H](CC(C)C)B(O)O` is 8.89; for `CC(C)C[C@H](NC(=O)[C@H](Cc1ccccc1)NC(=O)c1cccnc1)B(O)O` it is 9.6.
`CC(C)C[C@H](NC(=O)[C@H](Cc1ccccc1)NC(=O)c1cc[nH]c1)B(O)O` yielded a negative-log Ki (pKi) of 9.85.
For the compound `CC(C)C[C@H](NC(=O)[C@@H](N)Cc1ccccn1)B(O)O`, the pKi is 7.5.
The figure for `CN[C@@H](Cc1cccc2ccccc12)C(=O)N[C@@H](CC(C)C)B(O)O` is 8.96; for `CC(C)C[C@H](NC(=O)[C@H](Cc1ccccn1)NC(=O)N1CCOCC1)B(O)O` it is 8.2.
`B[C@H](CC(C)C)NC(=O)[C@H](Cc1cccc2ccccc12)NC(=O)N1CCOCC1` showed a pKi of 8.7.
In turn, `CB(O)[C@H](CC(C)C)NC(=O)[C@H](Cc1cccc2ccccc12)NC(=O)N1CCOCC1` gave a pKi of 7.
With `CC(C)C[C@H](NC(=O)[C@H](Cc1cccnc1)NS(C)(=O)=O)B(O)O` the figure was 8.2.
As for `CC(C)CC(NC(=O)[C@H](Cc1ccc(F)cc1)NC(=O)c1ccccn1)B(O)O` (single isomer, unassigned), the pKi was 9.08.
Compound `CC(C)C[C@H](NC(=O)[C@H](Cc1c[nH]c2ccccc12)NC(=O)N1CCOCC1)B(O)O` yielded a negative logarithm of the Ki (pKi) of 8.52.
For `CC(C)C[C@H](NC(=O)[C@H](Cc1ccccn1)NC(=O)c1ccccc1)B(O)O`, the negative-log Ki (pKi) is 9.12.
On to `CC(C)C[C@@H](NC(=O)[C@H](N)Cc1cccc2ccccc12)B(O)O.Cl` (single isomer, unassigned), for which the negative logarithm of the Ki (pKi) is recorded as 8.41.
Compound `CC(C)C[C@H](NC(=O)[C@H](Cc1ccccc1)NC(=O)c1ccccc1)B(O)O` registered a negative logarithm of the Ki (pKi) of 9.82.
In the case of `CC(C)C[C@H](NC(=O)[C@H](Cc1ccc(OCc2ccccc2)cc1)NC(=O)N1CCOCC1)B(O)O`, the pKi is reported as 9.64.
`CC(C)C[C@H](NC(=O)[C@H](Cc1c[nH]c2ccccc12)NS(C)(=O)=O)B(O)O`: the pKi is given as 8.24.
With `CC(C)C[C@H](NC(=O)[C@H](CC(C)C)N(C)C(=O)OCc1ccccc1)B(O)O` the figure was 6; with `CC(C)C[C@H](NC(=O)[C@H](Cc1cccc2ccccc12)NS(C)(=O)=O)B1OCCNCCO1`, 9.55.
For `CC(C)C[C@H](NC(=O)[C@H](Cc1ccccc1)NC(=O)c1ccccn1)B(O)O`, the pKi worked out at 9.38.
As for `CC(C)CC(NC(=O)[C@H](Cc1cccc2ccccc12)NC(=O)OCc1ccccc1)B1O[C@@H]2[C@H]3C[C@@H](C[C@]2(C)O1)C3(C)C` (single isomer, unassigned), the negative-log Ki (pKi) is recorded as 10.
Turning to `CC(C)CC(NC(=O)C(CC(C)C)NC(=O)OCc1ccccc1)B1O[C@@H]2[C@H]3C[C@@H](C[C@]2(C)O1)C3(C)C` (single isomer, unassigned), the negative-log Ki (pKi) is listed as 6.92.
Compound `CC(C)C[C@H](NC(=O)[C@H](Cc1ccc2ccccc2n1)NC(=O)N1CCOCC1)B(O)O` registered a pKi of 8.66.
`CC(C)C[C@H](NC(=O)[C@H](Cc1ccccn1)NS(=O)(=O)c1cccc2cccnc12)B(O)O`: the pKi was found to be 7.54.
Consider `CC(C)C[C@H](NC(=O)[C@H](Cc1ccccc1)NC(=O)c1ccc2ccccc2n1)B(O)O`, for which the pKi is reported as 9.72.
As for `CC(C)CC(NC(=O)[C@H](Cc1cccc2ccccc12)NS(=O)(=O)c1cccc2cccnc12)B(O)O` (single isomer, unassigned), the negative logarithm of the Ki (pKi) was 8.77.
`CC(C)C[C@H](NC(=O)[C@H](Cc1cccnc1)NC(=O)N1CCOCC1)B(O)O` returned a negative-log Ki (pKi) of 8.89.
The figure for `CC(C)C[C@H](NC(=O)[C@H](Cc1cccc2ccccc12)N(C)C(=O)OCc1ccccc1)B(O)O` is 9.02.
`CB(C)[C@H](CC(C)C)NC(=O)[C@H](CCc1ccccc1)NC(=O)N1CCOCC1` had a pKi of 8.66.
In the case of `CC(C)C[C@H](NC(=O)[C@H](Cc1ccccc1)NC(=O)NCc1ccccc1)B(O)O`, the pKi stood at 9.85.
With `CC(C)C[C@H](NC(=O)[C@H](Cc1ccccc1)NC(=O)N1CCOCC1)B(O)O` the figure was 9.09; with `CC(C)C[C@H](NC(=O)[C@H](Cc1cccc2ccccc12)NC(=O)N1CCOCC1)B1OCCNCCO1`, 9.82.
Consider `CC(C)C[C@H](NC(=O)[C@H](Cc1ccc2ncccc2c1)NC(=O)N1CCOCC1)B(O)O`, for which the pKi came out at 8.22.
For the compound `CC(C)C[C@H](NC(=O)[C@H](Cc1ccccc1)NC(=O)OCc1ccccc1)B(O)O`, the negative-log Ki (pKi) is given as 9.89.

As usually defined, the pKi is the Ki on a negative log10 scale, so that one unit is a factor of ten. Low readings indicate a high Ki, high ones a low Ki.
